Assay results published in patent publication US7906620B2, “Tumor associated antigen, peptides thereof, and use of same as anti-tumor vaccines” (Yeda Research and Development Co. Ltd., priority 2002, dated 2011).

Legend:
peptide pulsed T2 cells = assay: In vitro priming of human CTL precursors with 1-8D peptides; assay type: cell-based; settings: for activating peripheral CTLp to lyse target cells in a peptide specific manner: PBMC of two normal donors, after 4 consecutive stimulations
Protocol: FIG. 10 are graphs showing PMBC from 4 donors checked for existence of CTL precursors. Left hand panel-peptide 1-6 stimulated CTLp. Middle Panel-peptide 3-5 stimulated CTLp. Right hand panel-peptide 3-7 stimulated CTLp. […] PBMC were supplemented with IL-7, and two days later IL-2 was added and renewed every three days. The rest of the stimulations were done every 7 days over peptide pulsed monocytes. Seven days after the third stimulation, lymphocytes were harvested and a cytolytic assay was performed using peptide pulsed (closed squares, closed circles, open triangles, X signs) or non-pulsed T2 cells (open circles) as targets. Closed squares represent CTLp from donor A, closed circles represent CTLp from donor B, open triangles represent CTLp from donor C, Xs represent CTLp from donor D, and open circles represent non-pulsed T2 cells.
In vitro priming of human CTL. Leukopheresis products of four healthy donors were obtained from Barzilai Medical Center (Ashkelon, Israel) according to Declaration of Helsinki Principles. PMBC were isolated by centrifugation on Ficoll-Plaque Plus gradients (Amersham, Sweden). The procedure was carried out according to Thurner et al., with minor modifications. Briefly, in vitro priming was done over autologous DC that were prepared from monocytes by IL-4 and GM-CSF treatment and matured with a IL-1β, IL-6, TNF-α and PGE2 cocktail. DC were pulsed with the synthetic peptides and PBMC were supplemented with IL-7. Two days later IL-2 was added and renewed every three days. The rest of the stimulations were done every 7 days over peptide pulsed monocytes. […]

HCT/HHD cells [1] = assay: Anti-HCT/HHD CTL response after vaccination of HHD mice with 1-8D peptides; assay type: in vivo; settings: for lysis of HCT/HHD by peptide-induced CTL: HHD mice immunized with peptide loaded on RMA-S/HHD/B7.1; for ranking as vaccine against HCT/HHD (in vitro cytolytic capacity): mouse, in vivo
Protocol: FIG. 6 is a graph showing that the 1-8D peptides can mount anti-HCT/HHD CTL responses. HHD mice were immunized with HCT/HHD/B7.1 and with peptide loaded on RMA-S/HHD/B7.1. In vitro cytolytic assays were performed using HCT/HHD cells as targets. The specific lysis at E:T in 50:1 ratio of a representative experiment out of three is shown.
(§1) Vaccination. HHD mice were immunized i.p. 3 times at 7-day intervals with 2×10^6 irradiated (5000 rad) tumor cells, or irradiated peptide-loaded RMA-S/HHD/B7.1 transfectants. Spleens were removed on day 10 after the last immunization, and splenocytes were restimulated in vitro, either with irradiated tumor cells or with one third of the lymphocytes pre-pulsed with 100 μM synthetic peptides in opti-MEM (Life Technologies) for 2 hr at 37° C., 5% CO2. Restimulated lymphocytes were cultured in RPMI-HEPES medium containing 10% FCS, 2 mM glutamine, combined antibiotics, 1 mM sodium pyruvate, 25 mM HEPES, 5×10^−5M PME and 1% NEAA for 5 days. Viable cells (effectors) were separated by Lympholyte-M (Cedarlane, Hornby, Canada) gradient, resuspended and admixed at different ratios with 5,000 ^35S-methionine-labeled target cells. Cytolytic assays were carried out as described previously in Carmon et al., 2000. Extracts of tumor peptides or normal colon peptides were prepared from a pool of 6 post-surgical colon carcinoma specimens as described before Carmon et al., 2000.
(§2) Intrigued by this finding, the laboratory of the present inventors focused on the 1-8D peptides. Peptide binding to HLA-A2.1 was verified by a T2 stabilization assay (Firat et al., 1999). […] 1-8D peptides were next tested for induction of anti-HCT/HHD CTL responses by vaccinating HHD mice with the 1-8D peptides (Carmon et al., 2000).

HCT/HHD cells [2] = assay: Adoptive transfer of anti-1-8D peptide lymphocytes to nude mice bearing HCT/HHD footpad tumors; assay type: in vivo, CD1-nude mice; settings: for day from which retardation in tumor growth is significant (P<0.05): 10^7 restimulated lymphocytes i.v. three days post challenge, IL-2, one tailed student t-test
Protocol: FIG. 9 is a graph showing that nude mice were challenged in the foot pad with HCT/HHD cells. Lymphocyte from vaccinated HHD mice were transferred together with IL-2 to the tumor bearing mice and the growth of the tumor was monitored twice a week.
Adoptive transfer. CD1-nude mice were challenged in the footpad with 3×10^6 HCT/HHD cells. Three days later, 10^7 viable re-stimulated effector cells were injected i.v. to the tail vein. One thousand units of IL-2, was injected i.p. twice a day for 7 consecutive days post transfer. Tumor growth was monitored by measuring the diameter of the footpad with calipers. Mice were sacrificed when one of the tumor diameters reached 10 mm.
The anti-tumor efficacy of anti-1-8D peptide CTL was evaluated next. A transfer model, in which HCT/HHD cells were inoculated to the footpads of nude mice, was established. Three days post footpad challenge, in vitro restimulated HHD lymphocytes were transferred i.v. and the tumor growth was monitored.

[3] = system: EL4/HHD/1-8D transfected cells; assay: Lysis of 1-8D transfectants by CTL from peptide-immunized HHD mice; assay type: in vivo; settings: high background lysis of EL4/HHD
Protocol: FIGS. 8A-8C are graphs that show 1-8D peptides 1-6 (FIG. 8A), 3-5 (FIG. 8B), and 3-7 (FIG. 8C) mount CTL responses that lyse 1-8D transfectants. Each peptide was loaded on RMA-S/HHD/B7.1 and used to immunize HHD mice. In vitro cytolytic assays were performed using EL4/HHD cells (open circles) and EL4/HHD/1-8D transfected cells (dark circles) as a target. The specific lysis of a representative experiment out of three is shown.
The 1-8D peptides are presented by HHD molecules on HCT/HHD cells. […] The plasmid was stably transfected into EL4 cells together with an HHD plasmid. HHD mice were immunized with the 1-8D peptides and a cytolytic assay was performed. The susceptibility of EL4/HHD/1-8D transfectant and the parental EL4/HHD cells to be lysed by anti-1-8D lymphocytes were compared. FIG. 8A-8C summarizes the results of these cytolytic experiments.

HLA-A2.1 = molecular target: T1, HLA-A2.1 (Homo sapiens, UniProt P04439, D140Y/D185E/D98H/E176V/E277Q/G131W/G231S/I119V/I121R/I166T/I218V/L300P/L318F/N151K/N90K/P208A/P217A/Q86G/Q94H/R138H/R169H/T345S); assay: T2 stabilization assay (peptide binding to HLA-A2.1); settings: acid stripped T2 cells, peptide and recombinant β2m, BB7.2 mAb, FACS
T1 construct: endogenous in cells; host or cells: T2 cells (TAP-2-deficient lymphoblastoid line)
Protocol: T2 cells were acid stripped and incubated with the indicated peptide and recombinant β2m or with β2m alone as a negative control. FIG. 5D is the tyrosinase peptide as the positive control. Cells were stained with BB7.2 mAb and analyzed by FACS. The number of positive cells above control level is indicated for each of the peptides.
as §2

[4] = system: peptide loaded on labeled RMA-S/HHD; assay: Immunogenicity of peptides in HHD mice: vaccination with peptide-loaded RMA-S/HHD/B7.1, cytolytic assay on peptide-loaded targets; assay type: in vivo; settings: for Score: immunogenic score: ratio of specific lysis, specific peptide vs tyrosinase peptide loaded on RMA-S/HHD, average of two experiments, positive above 125%; for antigenic / immunogenic in HHD mice: mouse, in vivo
Protocol: FIG. 4 is a graph of the results of in vitro cytolytic assays. Seven peptides are immunogenic. Peptides were loaded on RMA-S/HHD/B7.1, washed and irradiated. HHD mice were immunized three times as described in the materials and methods section in Example 1. In vitro cytolytic assays were performed on the relevant peptide as target and on an irrelevant peptide. The score was deduced from the ratio of the specific lysis that were obtained. The positive peptides (above 125%) are marked by arrows. Peptides 1-6, 3-5 and 3-7 are derived from “Human 1-8D gene”.
as §1
The antigenic peptides were tested for their specific immunogenicity in HHD mice. HHD mice were vaccinated with RMA-S/HHD/B7.1 cells loaded with each of the peptides (listed in Table 3), their spleens were removed, and resensitized in vitro with synthetic peptides for four days. On the fifth day, a cytolytic assay was performed on two targets, either the peptide itself loaded on labeled RMA-S/HHD or the tyrosinase peptide as a negative control. The ratio of specific lysis between specific and tyrosinase peptides was defined as “immunogenic score”. This experiment was repeated twice and the average score of each of the antigenic peptides is specified (Table 3 and FIG. 4). The horizontal line in FIG. 4 represents the limit of 95% significance as defined by assuming normal distribution of scores.

EL4/HHD cells = assay: Immunogenicity of PSGR-derived peptides in HHD mice (peptide-loaded dendritic cells); settings: mouse, in vivo
Protocol: FIGS. 15A and 15B are graphs showing immunogenicty of PSGR-derived peptides in HHD mice. The mice were immunized i.v. three time with 1×10^6 syngeneic dendritic cells (DCs) loaded with either PSGR-1 or PSGR-6 peptides. Spleens were removed on day 10 after the last immunization, and splenocytes were re-stimulated in vitro by 100 μM PSGR-1 (FIG. 15A) or PSGR-6 (FIG. 15B) derived peptides in OPTIMEM for 2 h at 37° C., 5% CO2, followed by restimulation of lymphocytes for 4 more days in RPMI-HEPES. CTL assays were performed on day 5 with individual PSGR-1 or PSGR-6 derived peptides loaded on EL4/HHD cells as targets. Non-relevant PAP derived peptide-loaded EL4/HHD cells were used as negative controls. 100:1, 50:1, 25:1, 12.5:1 effector-to-target ratios are shown.
The immunogenicity of the peptides, namely their potential to induce T cell responses, was subsequently examined in an in vivo model. A strain of β2 microglobulin (β2m) HLA-A2.1 Monochain Transgenic, H-2D^b−/−Xβ2m^−/− double knockout mice (HHD mice) was used. Upon vaccination of these mice, a repertoire of human HLA-A2.1 restricted CTLs is produced. The lysis patterns of each of the individual peptides loaded on target cells were first evaluated following immunization with syngeneic dendritic cells pulsed with pools of 2-4 synthetic peptides derived from each examined protein.

[5] = system: peptide loaded on labeled RMA-S/HHD; settings: F. A. Lemonnier, unpublished; cited from earlier work
[6] = healthy donor PBMC, peptide pulsed vs non-pulsed T2 targets

Sequence	activating peripheral CTLp to lyse target cells in a peptide specific manner (peptide pulsed T2 cells)	CTL activity of stimulated CTLp, donor B (peptide pulsed T2 cells; [6])	CTL activity of stimulated CTLp, donor C (peptide pulsed T2 cells; [6])	lysis of HCT/HHD by peptide-induced CTL (HCT/HHD cells [1])	ranking as vaccine against HCT/HHD (in vitro cytolytic capacity) (HCT/HHD cells [1])	day from which retardation in tumor growth is significant (P<0.05) (HCT/HHD cells [2])	lysis of 1-8D transfectant compared to EL4/HHD cells [3]	binding to HLA-A2.1 (stabilization of HLA-A2 on T2 cells) (HLA-A2.1)	Score [4]	antigenic / immunogenic in HHD mice [4]	level of immunogenicity in HHD mice (EL4/HHD cells)	immunogenicity in the HHD model [5]	CTL activity of stimulated CTLp, donor A (peptide pulsed T2 cells; [6])	CTL activity of stimulated CTLp, donor D (peptide pulsed T2 cells; [6])	effect on in vivo growth of HCT/HHD (HCT/HHD cells [2]; adoptive transfer, nude mice)
LILGIFMTI (listed as Homo sapiens) [Peptide 3-5, Human 1-8D gene from interferon inducible gene 110-118]	incompetent	low yet specific CTL activity	not and low yet specific CTL activity	lyse the human colon carcinoma line HCT-15-HHD	most effective	11 days	roughly equal	stabilize HLA-A2 on T2 cells	176.7	antigenic and immunogenic	–	–	–	–	–
GLEKAHFWV (listed as Homo sapiens) [PSGR-6, PSGR start position 18]	–	–	–	–	–	–	–	–	–	–	low	–	–	–	–
TLNAWVKVV [HIV derived peptide]	–	–	–	–	–	–	–	–	–	–	–	weak immunogen	–	–	–
KCLNIWALI (listed as Homo sapiens) [Peptide 3-7, Human 1-8D and 1-8U genes from interferon inducible genes 103-111]	highly efficient	high CTL activity	low activity	lyse the human colon carcinoma line HCT-15-HHD	least effective	13 days	better lysed	stabilize HLA-A2 on T2 cells	487.5	antigenic and immunogenic	–	–	high CTL activity	low activity	least effective
EMKEEQEV (listed as Homo sapiens) [Peptide 1-6, Human 1-8D gene from interferon inducible gene 20-28]	incompetent	low yet specific CTL activity	not	lyse the human colon carcinoma line HCT-15-HHD	intermediate	13 days	better lysed	stabilize HLA-A2 on T2 cells	181.3	antigenic and immunogenic	–	–	not	–	–
